Assay results as given in patent US11685766B2, “14-3-3 targeting peptides for cancer treatment” (Creighton University, priority 2019, dated 2023).
Where “and” joins values, the source holds several entries; their conditions need not be identical. Equal values may be shown once. Read-outs that look alike come from different tables or passages of the source. Peptide text beside a SMILES is read from it.

Tests used:
SCC12B.2 cells [1] = type: cell-based, human
Experimental: Human skin cancer cell lines (SCC12B.2, SCC13, SRB12) were maintained in Dulbecco's modified Eagle's medium (DMEM) (Invitrogen, Carlsbad, Calif., USA) supplemented with 1% penicillin (10 000 U/ml)-streptomycin (10 000 μg/ml) (PenStrep) (Invitrogen) and 10% fetal bovine serum (Gemini Bio-Products, Sacramento, Calif., USA) at 37° C. and 5% CO2. Normal human epidermal keratinocytes (nHEK) (Thermo Scientific, Waltham, Mass., USA) isolated from neonatal foreskin were cultured in EpiLife medium (Invitrogen) supplemented with human keratinocyte growth supplement (Invitrogen) and 1% PenStrep (Invitrogen). Cells were transfected with control pcDNA or pcDNA3.1-HA-14-3-3ε (Addgene plasmid #48797; http://n2t.net/addgene:48797; RRID:Addgene_48797) using Lipofectamine/Plus reagents (Life Technologies, Carlsbad, Calif., USA) or with siRNA targeting 14-3-3ε (Dharmacon, Lafayette, Colo., USA), 14-3-3γ (Dharmacon), 14-3-3ζ, (Dharmacon), Survivin (Cell Signaling, Danvers, Mass., USA), Akt (Dharmacon) or control siRNA (Santa Cruz Biotechnology, Dallas, Tex., USA) using siQuest transfection reagents (Mirus Bio, Madison, Wis., USA) or treated with Akt inhibitor GSK690693 (Tocris Bioscience, Bristol, United Kingdom) or cell cycle inhibitor 5-Fluorouracil (5-FU) (Thermo Fisher) resuspended in DMSO.
To determine the half maximal inhibitory concentration (IC50) for ES1P2 in SCC12B.2 and nHEK cells, cells were plated in a 96-well plate at a density of 6×10^3 cells/well. Twenty-four hours after plating, cells were treated with increasing concentrations of ES1P2 (0-75 μM) in Opti MEM medium supplemented with reduced serum (Invitrogen) for 4 consecutive days. ES1P2 peptide was resuspended fresh, daily in 25 mM Tris buffer (pH 7.5). Neutral Red Cell Viability assays were performed, where absorbance was measured using a Cytation 5 multi-mode plate reader (BioTek). The experiment was repeated three separate times with 4 replicate wells per experiment to obtain an average IC50 value.
Carcinoma human cell lines (SCC12B.2 and SCC13) were maintained in Dulbecco's modified Eagle's medium (DMEM) (Invitrogen, Carlsbad, Calif., USA) supplemented with 1% penicillin (10 000 U/ml)-streptomycin (10 000 μg/ml) (PenStrep) (Invitrogen) and 10% fetal bovine serum (Gemini Bio-Products, Sacramento, Calif., USA) at 37° C. and 5% CO2. Primary normal human epidermal keratinocytes (nHEK) (Thermo Fisher Scientific, Waltham, Mass., USA) isolated from neonatal foreskin were maintained in EpiLife medium (Invitrogen) supplemented with human keratinocyte growth supplement (HKGS) and 1% PenStrep. nHEK cells were not passaged more than twice before experiments. Cells were treated with CDC25A inhibitor NSC663284 (Tocris Bioscience, Bristol, United Kingdom) suspended in DMSO, transfected with wild type CDC25A or control plasmid using Lipofectamine/Plus transfection reagents (Life Technologies, Carlsbad, Calif., USA) or transfected with siRNA targeting 14-3-3 ε or control siRNA (Santa Cruz Biotechnology, Dallas, Tex., USA) using siQuest transfection reagents (Mirus Bio, Madison, Wis., USA).
To determine the half maximal inhibitory concentration (IC50) for pS and pT in SCC12B.2 cells, cells were plated in a 96-well plate at a density of 6×10^3 cells/well. […] Neutral Red Cell Viability assays were performed, where absorbance was measured using a Cytation 5 multi-mode plate reader (BioTek). […]

SCC12B.2 cells [2] = assay: Caspase-3/7 Glo assay (apoptosis); type: cell-based, human; settings: ES1P2 20 μM; pS 30 μM; pT 20 μM, 24 hours; vs vehicle
Experimental: Apoptosis was assessed using a Caspase-3/7 Glo assay (Promega Corporation, Madison, Wis., USA) in a 96-well white-bottom plate (BRANDplates, Wertheim, Germany) according to the manufacturer's instructions. Cells were seeded at a density of 8×10^3 cells/well and incubated overnight before treatments or transfections. Luminescence was read using a Cytation 5 multi-mode plate reader (BioTek Instruments, Winooski, Vt., USA).
Apoptosis was assessed using a Caspase-3/7 Glo assay (Promega) in a 96-well white-bottom plate (BRANDplates, Wertheim, Germany). Cells were seeded at a density of 8×10^3 cells/well and Caspase-3/7 glo was performed 24 hours post-treatment according to the manufacturer's instructions and read using a Cytation 5 multi-mode plate reader (BioTek, Instruments, Winooski, Vt., USA).

For `NCCCC[C@H](NC(=O)[C@H](Cc1c[nH]c2ccccc12)NC(=O)[C@H](Cc1ccc(O)cc1)NC(=O)[C@@H](N)Cc1c[nH]c2ccccc12)C(N)=O` [ES1P2, Trp-Tyr-Trp-Lys-NH2] (H-WYWK-NH2), the IC50 (SCC12B.2 cells [1]) was 20.6 µM, the SCC cells alive (SCC12B.2 cells [1]; 20 μM, alone, FIG. 1D) was 62 % alive and the “apoptosis of SCC cells (Caspase-3/7)” value (SCC12B.2 cells [2]) was “increasing apoptosis to a statistically significant degree”.

In the case of `CSCC[C@H](NC(=O)[C@H](CCCNC(=N)N)NC(=O)[C@@H]1CCCN1C(=O)[C@H](C)NC(=O)[C@H](COP(=O)(O)O)NC(=O)[C@H](CC(N)=O)NC(=O)[C@H](CCC(N)=O)NC(=O)[C@H](CCCNC(=N)N)NC(=O)[C@H](CCC(N)=O)NC(=O)[C@@H](NC(C)=O)[C@@H](C)O)C(=O)N[C@@H](CC(C)C)C(=O)N[C@@H](CO)C(=O)N[C@@H](CO)C(=O)N[C@@H](CC(N)=O)C(N)=O` [pS, Ac-Thr-Gln-Arg-Gln-Asn-Ser-(PO3^2−)-Ala-Pro-Arg-Met-Leu-Ser-Ser-Asn-NH2] (HELM PEPTIDE1{[ac].T.Q.R.Q.N.[O=C([C@H](COP(=O)(O)O)N[*:1])[*:2]].A.P.R.M.L.S.S.N.[am]}$$$$V2.0), the IC50 (SCC12B.2 cells [1]) is reported as 29 µM and the “apoptosis of SCC cells (Caspase-3/7)” value (SCC12B.2 cells [2]) is reported as “increased apoptosis”.

For `CC(=O)N[C@@H](CCCNC(=N)N)C(=O)N[C@H](C(=O)N[C@@H](CCCCN)C(=O)N[C@@H](CO)C(=O)N[C@@H](CCCNC(=N)N)C(=O)N[C@H](C(=O)N[C@@H](Cc1c[nH]c2ccccc12)C(=O)N[C@@H](C)C(=O)NCC(=O)N[C@@H](CCC(=O)O)C(=O)N[C@@H](CCCCN)C(=O)N[C@@H](CO)C(=O)N[C@@H](CCCCN)C(=O)N[C@@H](CCCNC(=N)N)C(N)=O)[C@@H](C)OP(=O)(O)O)[C@@H](C)O` [pT, Ac-Arg-Thr-Lys-Ser-Arg-Thr(PO3^2−)-Trp-Ala-Gly-Glu-Lys-Ser-Lys-Arg-NH2] (HELM PEPTIDE1{[ac].R.T.K.S.R.[C[C@@H](OP(=O)(O)O)[C@H](N[*:1])C(=O)[*:2]].W.A.G.E.K.S.K.R.[am]}$$$$V2.0), the IC50 (SCC12B.2 cells [1]; SCC12B.2 cells, Neutral Red, treated 4 consecutive days, 0-75 μM, read-out: IC50 in SCC cells (cell viability dose response)) was 22.1 µM and 22.6 µM and the “apoptosis of SCC cells (Caspase-3/7)” value (SCC12B.2 cells [2]) was “increased apoptosis”.
